Results taken from ChEMBL document CHEMBL3792312, “Synthesis and docking studies of pyrazine-thiazolidinone hybrid scaffold targeting dormant tuberculosis” (Bioorg Med Chem Lett, 2016).
Values after ≈ are worked out from the molar mass of the structure shown.

Assays:
[1] = system: Mycobacterium tuberculosis; experiment: Antitubercular activity against dormant Mycobacterium bovis BCG after at 30 ug 12 days by nitrate reductase assay; format: functional, variant bovis BCG
[2] = system: Mycobacterium tuberculosis; experiment: Antitubercular activity against dormant Mycobacterium bovis BCG after at 10 ug 12 days by nitrate reductase assay; format: functional, variant bovis BCG
[3] = system: Mycobacterium tuberculosis; experiment: Antitubercular activity against dormant Mycobacterium bovis BCG after at 3 ug 12 days by nitrate reductase assay; format: functional, variant bovis BCG
[4] = system: Mycobacterium tuberculosis; experiment: Antitubercular activity against dormant Mycobacterium bovis BCG after 12 days by nitrate reductase assay; format: functional, organism-based; conditions: variant bovis BCG, 288 h

With `COc1ccc(C2SCC(=O)N2NC(=O)c2cnc(C)cn2)cc1OC` (stereo not drawn) the “inhibition (INH)” value [1] was 96.436%, the “inhibition (INH)” value [2] was 14.41% and the “inhibition (INH)” value [3] was -15.2185%.
With `Cc1cnc(C(=O)NN2C(=O)CS[C@@H]2c2ccc([N+](=O)[O-])cc2)cn1` the IC50 [4] was 23.4 µg/mL (≈ 65.3 µM), the MIC [4] was 28.8 µg/mL (≈ 80.1 µM) and the “inhibition (INH)” value [1] was 97.76%. For the same molecule, the “inhibition (INH)” value [2] was 56.74% and the “inhibition (INH)” value [3] was -13.1407%.
In the case of `Cc1cnc(C(=O)NN2C(=O)CSC2c2ccccc2)cn1` (stereo not drawn), the “inhibition (INH)” value [1] is reported as 96.6%, the “inhibition (INH)” value [2] is reported as -6.383% and the “inhibition (INH)” value [3] is reported as 34.12%.
In the case of `CN(C)c1ccc(C2SCC(=O)N2NC(=O)c2nccnc2N)cc1` (stereo not drawn), the “inhibition (INH)” value [1] is reported as 32.8615%, the “inhibition (INH)” value [2] is reported as 44.99% and the “inhibition (INH)” value [3] is reported as 26.9022%.
`CCOc1cc([C@@H]2SCC(=O)N2NC(=O)c2cnc(C)cn2)ccc1O` was tested, and the IC50 [4] was 9.46 µg/mL (≈ 25.3 µM), the MIC [4] was 15.9 µg/mL (≈ 42.5 µM) and the “inhibition (INH)” value [1] was 97.31%. The “inhibition (INH)” value [2] was 34.91% and the “inhibition (INH)” value [3] was -10.8481%.
For `Nc1nccnc1C(=O)NN1C(=O)CSC1c1ccc(Cl)cc1Cl` (stereo not drawn), the “inhibition (INH)” value [1] was 56.5348%, the “inhibition (INH)” value [2] was 27.48% and the “inhibition (INH)” value [3] was 22.55%.
In the case of `COc1cc([C@@H]2SCC(=O)N2NC(=O)c2cnc(C)cn2)ccc1O`, the IC50 [4] is reported as 5.1 µg/mL (≈ 14.2 µM), the MIC [4] is reported as 12.2 µg/mL (≈ 34 µM) and the “inhibition (INH)” value [1] is reported as 98.03%. The “inhibition (INH)” value [2] was 81.1965% and the “inhibition (INH)” value [3] was 3.203%.
With `NC(=O)c1cnccn1` [PYRAZINAMIDE] the MIC [4] was > 100 µg/mL.
For `Cc1cnc(C(=O)NN2C(=O)CS[C@@H]2c2cccc([N+](=O)[O-])c2)cn1`, the IC50 [4] was 9.89 µg/mL (≈ 27.5 µM), the MIC [4] was 18.5 µg/mL (≈ 51.5 µM) and the “inhibition (INH)” value [1] was 96.43%. The “inhibition (INH)” value [2] was 88.47% and the “inhibition (INH)” value [3] was 10.69%.
For `Cc1cnc(C(=O)NN2C(=O)CSC2c2ccc(O)cc2)cn1` (stereo not drawn), the “inhibition (INH)” value [1] was 77.54%, the “inhibition (INH)” value [2] was -17.5884% and the “inhibition (INH)” value [3] was -7.23%.
For `Nc1nccnc1C(=O)NN1C(=O)CSC1c1cccc([N+](=O)[O-])c1` (stereo not drawn), the “inhibition (INH)” value [1] was 64.92%, the “inhibition (INH)” value [2] was 38.85% and the “inhibition (INH)” value [3] was 47.21%.
`O=C(NN1C(=O)CSC1c1ccc(O)cc1)c1cnccn1` (stereo not drawn) was tested, and the “inhibition (INH)” value [1] was 54.42%, the “inhibition (INH)” value [2] was 16.47% and the “inhibition (INH)” value [3] was 9.989%.
With `Nc1nccnc1C(=O)NN1C(=O)CS[C@H]1c1ccc([N+](=O)[O-])cc1` the “inhibition (INH)” value [1] was 96.67%, the “inhibition (INH)” value [2] was 34.04% and the “inhibition (INH)” value [3] was 45.89%.
`Nc1nccnc1C(=O)NN1C(=O)CSC1c1ccc(Cl)cc1` (stereo not drawn) was tested, and the “inhibition (INH)” value [1] was 76.11%, the “inhibition (INH)” value [2] was 46.72% and the “inhibition (INH)” value [3] was 22.09%.
In the case of `O=C(NN1C(=O)CS[C@@H]1c1ccc(Cl)cc1)c1cnccn1`, the IC50 [4] is reported as 3.26 µg/mL (≈ 9.74 µM), the MIC [4] is reported as 8.48 µg/mL (≈ 25.3 µM) and the “inhibition (INH)” value [1] is reported as 96.24%. The “inhibition (INH)” value [2] was 91.85% and the “inhibition (INH)” value [3] was 43.58%.
For `COc1ccc([C@H]2SCC(=O)N2NC(=O)c2nccnc2N)cc1OC`, the IC50 [4] was 23.4 µg/mL (≈ 62.5 µM), the MIC [4] was 29.2 µg/mL (≈ 77.9 µM) and the “inhibition (INH)” value [1] was 94.4%. The “inhibition (INH)” value [2] was 25.35% and the “inhibition (INH)” value [3] was 3.112%.
`Nc1nccnc1C(=O)NN1C(=O)CSC1c1ccc(F)cc1` (stereo not drawn) was tested, and the “inhibition (INH)” value [1] was 63.72%, the “inhibition (INH)” value [2] was 26.63% and the “inhibition (INH)” value [3] was 12.4938%.
With `COc1ccc(C2SCC(=O)N2NC(=O)c2cnc(C)cn2)cc1` (stereo not drawn) the “inhibition (INH)” value [1] was 88.13%, the “inhibition (INH)” value [2] was 66.73% and the “inhibition (INH)” value [3] was -16.0935%.
With `CCOc1cc([C@H]2SCC(=O)N2NC(=O)c2nccnc2N)ccc1O` the IC50 [4] was 23.4 µg/mL (≈ 62.4 µM), the MIC [4] was 29.4 µg/mL (≈ 78.4 µM) and the “inhibition (INH)” value [1] was 97.5903%. For the same molecule, the “inhibition (INH)” value [2] was 23.79% and the “inhibition (INH)” value [3] was 30.79%.
For `Cc1cnc(C(=O)NN2C(=O)CS[C@H]2c2ccc(N(C)C)cc2)cn1`, the IC50 [4] was 21.8 µg/mL (≈ 61 µM), the MIC [4] was 29.4 µg/mL (≈ 82.3 µM) and the “inhibition (INH)” value [1] was 92.16%. For the same molecule, the “inhibition (INH)” value [2] was 75.69% and the “inhibition (INH)” value [3] was 30.06%.
For `O=C(NN1C(=O)CS[C@@H]1c1ccc([N+](=O)[O-])cc1)c1cnccn1`, the IC50 [4] was 4.93 µg/mL (≈ 14.3 µM), the MIC [4] was 9.38 µg/mL (≈ 27.2 µM) and the “inhibition (INH)” value [1] was 98.6%. For the same molecule, the “inhibition (INH)” value [2] was 92.72% and the “inhibition (INH)” value [3] was 24.09%.
`CO[C@H]1/C=C/O[C@@]2(C)Oc3c(C)c(O)c4c(O)c(c(/C=N/N5CCN(C)CC5)c(O)c4c3C2=O)NC(=O)/C(C)=C\C=C\[C@H](C)[C@H](O)[C@@H](C)[C@@H](O)[C@@H](C)[C@H](OC(C)=O)[C@@H]1C` [RIFAMPIN] gave an IC50 [4] of 0.004 µg/mL (≈ 0.00486 µM) and an MIC [4] of 0.04 µg/mL (≈ 0.0486 µM).
In the case of `NNC(=O)c1ccncc1` [ISONIAZID], the MIC [4] is reported as 0.045 µg/mL (≈ 0.328 µM).
For `Nc1nccnc1C(=O)NN1C(=O)CSC1c1ccccc1` (stereo not drawn), the IC50 [4] was 12.9 µg/mL (≈ 40.9 µM), the MIC [4] was 24.4 µg/mL (≈ 77.4 µM) and the “inhibition (INH)” value [1] was 97.97%. The “inhibition (INH)” value [2] was 30.74% and the “inhibition (INH)” value [3] was 11.98%.
`Cc1cnc(C(=O)NN2C(=O)CSC2c2ccc(Cl)cc2)cn1` (stereo not drawn) was tested, and the “inhibition (INH)” value [1] was 61.87%, the “inhibition (INH)” value [2] was 48.01% and the “inhibition (INH)” value [3] was 44.18%.
For `Nc1nccnc1C(=O)NN1C(=O)CSC1c1ccc(O)cc1` (stereo not drawn), the “inhibition (INH)” value [1] was 82.99%, the “inhibition (INH)” value [2] was 45.87% and the “inhibition (INH)” value [3] was 14.76%.
